Experimental data as given in PubChem BioAssay AID256 (DTP/NCI, 2004).
Toxic doses and inconclusive results are not listed.

Tested on: CD2F1 mice, L1210 leukemia ip, survival T/C
Test: NCI In Vivo Anticancer Drug Screen. Data for tumor model L1210 Leukemia (intraperitoneal) in CD2F1 (CDF1) mice
Details: endpoint: mean survival time, higher = longer survival
Method: The antitumor activity of compounds was measured in mice bearing transplantable tumors. Survival or tumor size were measured and the results are expressed as the measurement made in the treated group (T) divided by the measurement made in the vehicle treated control group (C). The tumor model used in this assay is L1210 Leukemia (intraperitoneal) in CD2F1 (CDF1) mice

[1] = dose: 25.0 mg/kg/injection, schedule: Q01DX009 (ip), vehicle: saline with Tween-80
[2] = dose: 50.0 mg/kg/injection, schedule: Q01DX009 (ip), vehicle: saline with Tween-80
[3] = dose: 100.0 mg/kg/injection, schedule: Q01DX009 (ip), vehicle: saline with Tween-80
[4] = dose: 25.0 mg/kg/injection, schedule: Q01DX009 (ip), vehicle: Klucel (hydroxypropylcellulose) (HPC)
[5] = dose: 100.0 mg/kg/injection, schedule: Q04DX003 (ip), vehicle: saline with Tween-80

Question: Which results are given for O=C(O)c1cccc2c1-c1ccccc1C(Br)C2Br (centres undefined)?
Answer: T/C [1]: 93 % of control; T/C (dose: 50.0 mg/kg/injection, schedule: Q01DX005 (ip), vehicle: saline with Tween-80): 100 % of control; T/C [2]: 93 % of control; T/C (dose: 100.0 mg/kg/injection, schedule: Q01DX005 (ip), vehicle: saline with Tween-80): 88 % of control; T/C [3]: 89 % of control

Question: With c1ccc(Cc2ccccn2)cc1 as the compound, how does the T/C (dose: 100.0 mg/kg/injection, schedule: Q04DX003 (ip), vehicle: water) read?
Answer: Its T/C is 93 % of control.

Question: What about the T/C (dose: 200.0 mg/kg/injection, schedule: Q04DX003 (ip), vehicle: water) of the same compound?
Answer: The T/C was 101 % of control.

Question: And the T/C (dose: 400.0 mg/kg/injection, schedule: Q04DX003 (ip), vehicle: water)?
Answer: The T/C was 104 % of control.

Question: With COc1ccc2c(c1)OC(C)(C)C(c1ccccc1)=C2c1ccc(OCCN2CCCC2)cc1 as the compound, how does the T/C (dose: 75.0 mg/kg/injection, schedule: Q01DX001 (ip), vehicle: saline) read?
Answer: Its T/C is 98 % of control.

Question: What does the source list for O=[N+]([O-])c1cccc(S(=O)(=O)O)c1.[Fe]?
Answer: T/C (dose: 50.0 mg/kg/injection, schedule: Q01DX009 (ip), vehicle: saline): 103 % of control; T/C (dose: 100.0 mg/kg/injection, schedule: Q01DX009 (ip), vehicle: saline): 91 % of control

Question: What does the source list for O=C1C(c2ccccc2)CN1C1CCCCC1 (centres undefined)?
Answer: T/C (dose: 100.0 mg/kg/injection, schedule: Q01DX001 (ip), vehicle: saline): 104 % of control; T/C (dose: 200.0 mg/kg/injection, schedule: Q01DX001 (ip), vehicle: saline): 101 % of control; T/C (dose: 400.0 mg/kg/injection, schedule: Q01DX001 (ip), vehicle: saline): 87 % of control

Question: What does the source list for O=C(C[n+]1cc2ccccc2c2ccccc21)c1ccccc1?
Answer: T/C (dose: 100.0 mg/kg/injection, schedule: Q04DX003 (ip), vehicle: saline): 95 % of control; T/C (dose: 200.0 mg/kg/injection, schedule: Q04DX003 (ip), vehicle: saline): 86 % of control

Question: What does the source list for NC(=O)c1nn(C2OC(CO)C(O)C2O)c2ncnc(N)c12 (centres undefined)?
Answer: T/C [4]: 207 % of control; T/C (dose: 50.0 mg/kg/injection, schedule: Q01DX009 (ip), vehicle: Klucel (hydroxypropylcellulose) (HPC)): 200 % of control

Question: Nc1ncc2ccccc2c1-c1ccc(NC(=O)CN(CCCl)CCCl)cc1 was tested. Which T/C (dose: 25.0 mg/kg/injection, schedule: Q04DX003 (ip), vehicle: other) did it give?
Answer: The T/C was 106 % of control.

Question: What about the T/C (dose: 50.0 mg/kg/injection, schedule: Q04DX003 (ip), vehicle: other) of the same compound?
Answer: Its T/C is 106 % of control.

Question: And the T/C (dose: 100.0 mg/kg/injection, schedule: Q04DX003 (ip), vehicle: other)?
Answer: Its T/C is 103 % of control.

Question: What about the T/C (dose: 200.0 mg/kg/injection, schedule: Q04DX003 (ip), vehicle: other) of the same compound?
Answer: The T/C was 109 % of control.

Question: And the T/C (dose: 400.0 mg/kg/injection, schedule: Q04DX003 (ip), vehicle: other)?
Answer: The T/C was 112 % of control.

Question: Which T/C [1] does the source give for CC1=CC(=O)C2(C)C(C)=C(C)C12C (centres undefined) here?
Answer: The T/C was 104 % of control.

Question: And the T/C [2]?
Answer: Its T/C is 100 % of control.

Question: What about the T/C [3] of the same compound?
Answer: The T/C was 102 % of control.

Question: What does the source list for CCOC(=O)Nc1cc(N)c(N)c(=O)[nH]1?
Answer: T/C (dose: 100.0 mg/kg/injection, schedule: Q01DX001 (ip), vehicle: carboxymethylcellulose (CMC)): 102 % of control; T/C (dose: 200.0 mg/kg/injection, schedule: Q01DX001 (ip), vehicle: carboxymethylcellulose (CMC)): 96 % of control; T/C (dose: 400.0 mg/kg/injection, schedule: Q01DX001 (ip), vehicle: carboxymethylcellulose (CMC)): 102 % of control

Question: With CCCCOC(=O)Cc1c(C)[nH]c2ccc(-c3ccccc3)cc12 as the compound, how does the T/C (dose: 50.0 mg/kg/injection, schedule: Q04DX002 (ip), vehicle: saline with Tween-80) read?
Answer: The T/C was 102 % of control.

Question: And the T/C (dose: 100.0 mg/kg/injection, schedule: Q04DX002 (ip), vehicle: saline with Tween-80)?
Answer: The T/C was 102 % of control.

Question: And the T/C (dose: 200.0 mg/kg/injection, schedule: Q04DX002 (ip), vehicle: saline with Tween-80)?
Answer: The T/C was 97 % of control.

Question: Which results are given for COC(=O)C1CCC(C(=O)O)CC1 (centres undefined)?
Answer: T/C [3]: 92 % of control; T/C [5]: 101 % of control; T/C (dose: 200.0 mg/kg/injection, schedule: Q01DX009 (ip), vehicle: saline with Tween-80): 94 % of control; T/C (dose: 200.0 mg/kg/injection, schedule: Q04DX003 (ip), vehicle: saline with Tween-80): 97 % of control; T/C (dose: 400.0 mg/kg/injection, schedule: Q01DX009 (ip), vehicle: saline with Tween-80): 89 % of control; T/C (dose: 400.0 mg/kg/injection, schedule: Q04DX003 (ip), vehicle: saline with Tween-80): 95 % of control

Question: What does the source list for CCCC(C#N)OC(=O)c1ccccc1 (centres undefined)?
Answer: T/C [1]: 96 % of control; T/C [2]: 104 % of control; T/C [5]: 101 % of control

Question: Which results are given for NNC(=O)c1ccc(-c2ccccc2)cc1?
Answer: T/C (dose: 1.56 mg/kg/injection, schedule: Q01DX009 (ip), vehicle: Klucel (hydroxypropylcellulose) (HPC)): 100 % of control; T/C (dose: 3.13 mg/kg/injection, schedule: Q01DX009 (ip), vehicle: Klucel (hydroxypropylcellulose) (HPC)): 98 % of control; T/C (dose: 6.25 mg/kg/injection, schedule: Q01DX009 (ip), vehicle: Klucel (hydroxypropylcellulose) (HPC)): 96 % of control; T/C (dose: 12.5 mg/kg/injection, schedule: Q01DX009 (ip), vehicle: Klucel (hydroxypropylcellulose) (HPC)): 102 % of control; T/C [4]: 94 % of control; T/C (dose: 25.0 mg/kg/injection, schedule: Q01DX009 (ip), vehicle: water): 108 % of control; T/C (dose: 50.0 mg/kg/injection, schedule: Q01DX009 (ip), vehicle: water): 102 % of control; T/C (dose: 100.0 mg/kg/injection, schedule: Q01DX009 (ip), vehicle: water): 100 % of control
